Test: Solubility enhancement of zotarolimus with select excipients in PBS
Assay type: physicochemical
Settings: n = 3
Excerpt: Table 1 provides non-limiting examples of the solubility enhancement provided by excipients that can be used in accordance with the disclosed subject matter: […]

Compound: CO[C@H]1C[C@@H]2CC[C@@H](C)[C@@](O)(O2)C(=O)C(=O)N2CCCC[C@H]2C(=O)O[C@H]([C@H](C)C[C@@H]2CC[C@H](n3cnnn3)[C@H](OC)C2)CC(=O)[C@H](C)/C=C(\C)[C@@H](O)[C@@H](OC)C(=O)[C@H](C)C[C@H](C)/C=C/C=C/C=C/1C [Zotarolimus, zotarolimus]
- solubility (PBS with 5% w/w PEG 400, aqueous with cosolvent or surfactant or cyclodextrin, PEG 400 5% w/w in PBS): 31.5 ± 3.5 µg/mL
- solubility (PBS with 5% w/w PEG-PE, aqueous with cosolvent or surfactant or cyclodextrin, PEG-PE 5% w/w in PBS): 1020 ± 417 µg/mL
- solubility (PBS with 5% w/w PVP C-17, aqueous with cosolvent or surfactant or cyclodextrin, PVP C-17 5% w/w in PBS): 5.6 ± 1.6 µg/mL
- solubility (PBS with 5% w/w Tween 20, aqueous with cosolvent or surfactant or cyclodextrin, Tween 20 5% w/w in PBS): 732 ± 94.7 µg/mL
- solubility (PBS with 5% w/w Vitamin E TPGS, aqueous with cosolvent or surfactant or cyclodextrin, Vitamin E TPGS 5% w/w in PBS): 512 ± 49.5 µg/mL
- solubility (PBS with 5% w/w glycerol, aqueous with cosolvent or surfactant or cyclodextrin, Glycerol 5% w/w in PBS): 43.2 ± 30.1 µg/mL
- solubility (PBS with 5% w/w hydroxypropyl-β-cyclodextrin, aqueous with cosolvent or surfactant or cyclodextrin, Hydroxypropyl-β-cyclodextrin 5% w/w in PBS): 11.6 ± 3.1 µg/mL
- solubility (PBS with 5% γ-cyclodextrin, aqueous with cosolvent or surfactant or cyclodextrin, 5% γ-Cyclodextrin in PBS): 55.3 ± 34.3 µg/mL

From US20110144577A1, “HYDROPHILIC COATINGS WITH TUNABLE COMPOSITION FOR DRUG COATED BALLOON” (priority 2009, published 2011)
